Where “and” joins values, the source holds several entries; their conditions need not be identical. Equal entries are not always repeated.
How the values were obtained:
BxPC-3 cells = assay: Flow cytometry to measure apoptosis in BxPC-3 cells; type: cell-based; conditions: 48 hours
Experimental: BxPC-3 cells were treated with cromolyn (10 μM) with (+) or without (−) gemcitabine (10 μM), and apoptosis was analyzed after 48 hours by flow cytometry. *, P<0.001 versus control, #, P=0.001 versus gemcitabine. Means and 95% confidence intervals of three independent experiments performed in triplicate are shown. Two-tailed two-sample (unpaired) Student's t-tests were used to determine P values. Standard propidium iodide (PI) staining by the hypotonic lysis method was used for apoptosis studies. Apoptosis was induced in 1.0×10^6 BxPC-3 cells by treatment with gemcitabine (10 μM), with or without cromolyn. After 48 hours the cells were detached from culture dishes by incubation in 0.05% trypsin-EDTA, washed once with cold PBS, and then incubated for 30 minutes in 500 μL of hypotonic solution (0.1% sodium citrate, 0.1% Triton X-100, 100 μg/mL RNAse, and 50 μg/mL PI), and analyzed by flow cytometry (EPICS XL, Beckman Coulter Inc, Fullerton, Calif.). Cells undergoing apoptosis that had lost part of their DNA were identified as the population of cells with sub-G1 DNA content. These assays were performed three times.

MPanc-96 cells = assay: MPanc-96 cell apoptosis by flow cytometry, 72 hours; type: cell-based, human; conditions: 100 and 1000 nM, with or without gemcitabine 10 μM
Experimental: FIG. 11 compares the effects of cromolyn and C5 alone and in combination with gemcitabine on MPanc-96 cell apoptosis. MPanc-96 cells were treated with cromolyn or C5 (100 and 1000 nM) with (+) or without (−) gemcitabine (10 μM). Apoptosis was analyzed after 72 hours by flow cytometry.

SKOV3 ovarian cells = assay: SKOV3 ovarian cell viability with taxol; type: cell-based; conditions: taxol 5 μM, cromolyn 10 μM, 48 hours
Experimental: SKOV3 ovarian cells were plated and treated with taxol (5 μM) either in the presence or absence of cromolyn (10 μM) for 48 hours. Cell viability was analyzed after 48 hours. *, P<0.05.

PC3 prostate cells = assay: PC3 prostate cell viability with taxol; type: cell-based; conditions: taxol 100 nM, cromolyn 10 μM, 48 hours
Experimental: PC3 prostate cells were plated and treated with taxol (100 nM) either in the presence or absence of cromolyn (10 μM) for 48 hours. Cell viability was analyzed after 48 hours. *, P<0.05.

BxPC-3 orthotopic tumors = assay: Tumor growth and metastasis in scid mice, BxPC-3 orthotopic; type: in vivo; conditions: for lung metastasis, mean: control mean=5.5×10^8; for tumor burden (primary tumor volume by bioluminescence), mean: end of six weeks, cromolyn 5 mg per kg daily i.p., gemcitabine 125 mg per kg bi-weekly i.p., control mean=1.6×10^9
Experimental: BxPC-3 cells stably expressing the firefly luciferase gene were injected orthotopically into 4 week old male CB 17 scid mice. […] Mice were divided into four groups of five mice each with an equivalent mean tumor size between groups. […] One group was treated with water (control), one group received gemcitabine bi-weekly (125 mg kg body weight bi-weekly by intraperitoneal injection), one group was administered cromolyn daily (5 mg per kg body weight daily by intraperitoneal injection), and the final group was given the combination of daily cromolyn and bi-weekly gemcitabine. All groups were treated for six weeks. Bioluminescent imaging was done weekly to assess tumor growth. […] Means and 95% confidence intervals are shown. (n=20). Two-tailed two-sample (unpaired) Student's t-tests were used to determine P values. The anti-tumorigenic capability of the drug cromolyn was assessed in 4-week-old male CB 17 scid mice (n=20) carrying orthopic tumors of BxPC-3, MPanc96, and Panc-1 cells stably expressing a Lenti-luc reporter. All mouse experiments were reviewed and approved by the Institutional Animal Care and Use Committee of UT MD Anderson Cancer Center. All mice were maintained in a sterile environment. Cages, bedding, food, and water were all autoclaved. All mice were maintained on a daily 12-hour light/12-hour dark cycle, according to the institutional animal welfare guidelines. BxPC-3, MPanc96, and Panc-1 cells carrying the Lenti-luc reporter gene were grown to 80% confluence, harvested by incubation with trypsin-EDTA, washed twice in PBS, and resuspended to a final concentration of 4.0×10^6 cells/mL. Each mouse (n=20 mice per cell line) was injected (into the pancreas) with cell suspensions (50 μL). […] This initial tumor volume was used to divide the mice into four groups of five mice each, such that the mean tumor size was equal between groups (FIGS. 4A, 5A, and 6A). To allow enough time to observe differences among treatment groups, the mice were followed for the next 5 weeks. One group of mice was then treated biweekly with a sub-maximal concentration of gemcitabine (125 mg per kg body weight by i.p. injection). A second group was treated with a daily injection of cromolyn (5 mg per kg body weight by i.p. injection). A third group was treated with both bi-weekly gemcitabine and daily cromolyn. The control group was treated daily with vehicle. Treatments were continued for 5 weeks, and the effects on the tumor burden and metastasis were analyzed by weekly bioluminescence imaging (FIGS. 4B, 5B, and 6B). At the end of the experiment the mice were anesthetized with 1.5% isofluorane/air mixture and killed by cervical dislocation. […] Before imaging, mice were placed in an acrylic chamber, anesthetized with 1.5% isofluorane/air mixture, and injected i.p. with 15 mg/mL of luciferin potassium salt in PBS at a dose of 150 mg per kg body weight. A digital grey scale image of each mouse was acquired, followed by acquisition and overlay of a pseudocolor image representing the spatial distribution of detected photons emerging from active luciferase within the mouse. Tumor volume was quantified as the sum of all detected photons within the region of the tumor per second. At the end of experiment, the mice were killed, and tumors were surgically removed and weighed. After the primary tumors were removed, cancer cell dissemination and metastasis was visualized using IVIS imaging, and metastatic colonies were counted. Subsequently, tissues were fixed with formaldehyde, and histology was used to verify the accuracy of the bioluminescence data.

O=C(O)c1cc(=O)c2c(OCC(O)COc3cccc4oc(C(=O)O)cc(=O)c34)cccc2o1 [cromolyn, disodium 1,3-bis[(2′-carboxylatochromon-5′-yl)oxy]-2-hydroxypropane]
effect on BxPC-3 cell apoptosis, cromolyn alone (BxPC-3 cells; cromolyn 10 μM): no statistically significant effect
MPanc-96 cell viability (MPanc-96 cells): inhibit MPanc-96 cell viability
cell killing effect of taxol on ovarian cancer cells (SKOV3 ovarian cells): increased the cell killing effect of taxol
cell killing effect of taxol on prostate cancer cells (PC3 prostate cells): increased the cell killing effect of taxol
lung metastasis, difference versus control (BxPC-3 orthotopic tumors; BxPC-3): 3.9×10^8 photons/sec
tumor burden, difference versus control (BxPC-3 orthotopic tumors; BxPC-3): 1.2×10^9 photons/sec
lung metastasis, mean (BxPC-3 orthotopic tumors; BxPC-3): 1.6×10^8 photons/sec
tumor burden (primary tumor volume by bioluminescence), mean (BxPC-3 orthotopic tumors; BxPC-3): 4.4×10^8 photons/sec
effect on body weight (BxPC-3 orthotopic tumors; BxPC-3 model, up to 6 weeks): no effect on body weight

Nc1ccn([C@@H]2O[C@H](CO)[C@@H](O)C2(F)F)c(=O)n1 [gemcitabine]
apoptotic BxPC-3 cells, mean (BxPC-3 cells; gemcitabine 10 μM, cromolyn 10 μM, control mean=3.7%): 31.0% and 30.8%
apoptotic BxPC-3 cells, difference versus control (BxPC-3 cells; gemcitabine 10 μM): 27.3%
tumor burden, difference versus control (BxPC-3 orthotopic tumors; BxPC-3): 6.8×10^8 photons/sec
effect on liver metastasis (BxPC-3 orthotopic tumors; BxPC-3, versus control): did not reduce metastasis
effect on lung metastasis (BxPC-3 orthotopic tumors; BxPC-3, versus control): did not reduce metastasis
lung metastasis, mean (BxPC-3 orthotopic tumors; BxPC-3): 3.9×10^8 photons/sec
tumor burden (primary tumor volume by bioluminescence), mean (BxPC-3 orthotopic tumors; BxPC-3): 9.2×10^8 photons/sec
body weight, difference versus control (BxPC-3 orthotopic tumors; BxPC-3 model): 3.9 g
body weight at the end of the experiment, mean (BxPC-3 orthotopic tumors; BxPC-3 model, control mean=31.1): 27.2 g
